Assay results reported in patent US9322032B2, “Arabidopsis ring E3 ubiquitin ligase for promotion of plant germination” (INDUSTRY-ACADEMIC COOPERATION FOUNDATION, YONSEI UNIVERSITY, priority 2011, dated 2016).

T1: E3 ubiquitin ligase (Arabidopsis thaliana, UniProt Q9M022)
T1 construct: the ORF of the AtAIRP2 gene was subcloned into pMAL-X vector in-frame with MBP; made in house; host or cells: Escherichia coli BL21-CodonPlus (DE3) RIL
T1 sequence (Q9M022 1-242): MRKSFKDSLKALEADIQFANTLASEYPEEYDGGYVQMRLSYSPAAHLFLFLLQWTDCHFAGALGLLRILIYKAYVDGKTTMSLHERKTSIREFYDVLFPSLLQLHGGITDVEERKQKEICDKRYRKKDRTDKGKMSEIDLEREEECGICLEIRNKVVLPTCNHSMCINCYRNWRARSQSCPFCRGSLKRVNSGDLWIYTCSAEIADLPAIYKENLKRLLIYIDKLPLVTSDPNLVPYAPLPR

B1: AtAIRP2 protein: RING protein encoded by At5g01520 (SEQ ID NO:2), tested as maltose-binding protein fusion (protein)
chain: T1 sequence (Q9M022 1-242)
modifications: left off: large carriers

Tests used:
AtAIRP2 gene promoter = assay: Histochemical GUS assay of AtAIRP2 promoter activity; assay type: in vivo, Arabidopsis thaliana; details: 100 μM ABA, 3 hours
Protocol: […] After removal of the acetone, the plant was washed 3 times with rincing solution containing 50 mM NaPO4, 1 mM K3Fe(CN)6, and 1 mM K4Fe(CN)6, and immersed in 2 mM X-Gluc (5-bromo-4-chloro-3-indolyl glucuronide, sigma) and vacuumed for 1 min. After staining at 37° C. in the dark until the color was changed, the plant was incubated in 90% ethanol to remove chlorophyll.
(§1) The AtAIRP2 gene expressions in various abiotic stresses were analyzed by RT-PCR. After treatments of low-temperature (12 hours and 24 hours), drought (1 hour and 2 hours), salt (1.5 hour and 3 hours) and ABA hormone (1.5 hour and 3 hours) stresses, RNA from each of samples was extracted to analyze the gene expression patterns. As a result, it was determined that the gene expression levels of stress treatments were increased than those of non-stress treatments, thereby the AtAIRP2 gene expression is induced by salt, low-temperature, drought and ABA hormone stresses (FIG. 1). In addition, the AtAIRP2 protein expressions in various abiotic stresses were analyzed by histochemical GUS assay. After treatments of ABA hormone (3 hours) and drought (2 hours) stresses, the degree of the staining was analyzed. As a result, it was determined that the degrees of the staining of stress treatments were increased than those of before the stress treatments (FIG. 2).

AtAIRP2 gene = AtAIRP2 gene expression by RT-PCR after stress treatment; assay type: in vivo, Arabidopsis thaliana; details: 100 μM ABA, 1.5 hour and 3 hours, 2-week-old wild type seedlings
Protocol: In order to determine expressions of the AtAIRP2 gene to drought stress, the wild type Arabidopsis thaliana seedlings which were grown on medium for 2 weeks were exposed in the air, and sampled after 1 hour and 2 hours. In order to determine expressions of the AtAIRP2 gene to salt stress, the wild type Arabidopsis thaliana seedlings which were grown on medium for 2 weeks were treated with 300 mM sodium chloride, and sampled after 1.5 hour and 3 hours. In order to determine expressions of the AtAIRP2 gene to low-temperature stress, the wild type Arabidopsis thaliana seedlings which were grown on medium for 2 weeks were incubated at 4° C. for 12 hours and 24 hours, and sampled. […]
as §1, with “After treatments of low-temperature (12 hours and 24 hours), drought (1 hour and 2 hours), salt (1.5 hour and 3 hours) and ABA hormone (1.5 hour and 3 hours) stresses, RNA from each of samples was extracted to analyze the gene expression patterns.” left out

E3 ubiquitin ligase = target: T1, E3 ubiquitin ligase; assay: Self-ubiquitination assay (Western blot, anti-MBP and anti-ubiquitin); assay type: biochemical; details: with UBA1, UBC8, ubiquitin, 30° C., 1 hour
Protocol: For the enzymatic activity analysis of the AtAIRP2 protein, the ORF of the AtAIRP2 gene was subcloned into pMAL-X vector in-frame with MBP (maltose-binding protein). 40 mM Tris-HCI, pH 7.5, 5 mM MgCl2, 2 mM ATP, 2 mM dithiothreitol (DTT), 300 ng/μL ubiquitin (Sigma), 25 μM MG132 (A.G. Scientific Inc.), 500 ng UBA1 (ABRC, www.arabidopsis.org), 500 ng UBC8 (ABRC, www.arabidopsis.org) and 500 ng MBP-AtAIRP2 were added to each of tubes and incubated at 30° C. After addition of sample buffer solution, the resultant was heated at 100° C. for 5min, and performed by Western blot using anti-MBP (New England Bio Labs) and anti-ubiquitin (Santa Cruz) antibodies.
Maltose-binding protein (MBP) was bound to the AtAIRP2 proteins. Then, the MBP-AtAIRP2 was incubated with UBA1, UBC8, ubiquitin and AtAIRP2 at 30° C. for 1 hour to perform Self-Ubiquitination, and performed by Western blot using MBP- and ubiquitin-specific antibodies to analyze changes in the protein levels. As a result, it was determined that the molecular weight of the AtAIRP2 protein was increased through Western blot using anti-MBP antibody, and the increase was induced due to ubiquitin (FIG. 3).

Molecule | GUS signals (AtAIRP2 promoter activity) (AtAIRP2 gene promoter) | AtAIRP2 gene expression (AtAIRP2 gene) | enzymatic activity of E3 ubiquitin ligase (E3 ubiquitin ligase)
CC1=CC(=O)CC(C)(C)C1(O)/C=C/C(C)=C\C(=O)O (stereo not drawn) [ABA] | markedly induced | induced | –
B1 | – | – | possessed ability for enzymatic activity of E3 ubiquitin ligase
